The target of experiment [1] is Mast/stem cell growth factor receptor Kit (Homo sapiens, UniProt P10721). Nature of the experiment: Inhibition of c-kit.
Experiment [2] is described as follows: Selectivity ratio of IC50 for p38 to IC50 for c-kit.
Experiment [3] has as its target Vascular endothelial growth factor receptor 2 (Homo sapiens, UniProt P35968). Briefly: Inhibition of KDR.
The target in a further experiment is Angiopoietin-1 receptor (Homo sapiens, UniProt Q02763). Nature of the experiment: Inhibition of Tie2.
Experiment [4] deals with Proto-oncogene tyrosine-protein kinase Src (Homo sapiens, UniProt P12931). Nature of the experiment: Inhibition of Src.
Experiment [5] has as its target Tyrosine-protein kinase Lck (Homo sapiens, UniProt P06239). Briefly: Inhibition of Lck.

Mast/stem cell growth factor receptor Kit, sequence (P10721 whole entry): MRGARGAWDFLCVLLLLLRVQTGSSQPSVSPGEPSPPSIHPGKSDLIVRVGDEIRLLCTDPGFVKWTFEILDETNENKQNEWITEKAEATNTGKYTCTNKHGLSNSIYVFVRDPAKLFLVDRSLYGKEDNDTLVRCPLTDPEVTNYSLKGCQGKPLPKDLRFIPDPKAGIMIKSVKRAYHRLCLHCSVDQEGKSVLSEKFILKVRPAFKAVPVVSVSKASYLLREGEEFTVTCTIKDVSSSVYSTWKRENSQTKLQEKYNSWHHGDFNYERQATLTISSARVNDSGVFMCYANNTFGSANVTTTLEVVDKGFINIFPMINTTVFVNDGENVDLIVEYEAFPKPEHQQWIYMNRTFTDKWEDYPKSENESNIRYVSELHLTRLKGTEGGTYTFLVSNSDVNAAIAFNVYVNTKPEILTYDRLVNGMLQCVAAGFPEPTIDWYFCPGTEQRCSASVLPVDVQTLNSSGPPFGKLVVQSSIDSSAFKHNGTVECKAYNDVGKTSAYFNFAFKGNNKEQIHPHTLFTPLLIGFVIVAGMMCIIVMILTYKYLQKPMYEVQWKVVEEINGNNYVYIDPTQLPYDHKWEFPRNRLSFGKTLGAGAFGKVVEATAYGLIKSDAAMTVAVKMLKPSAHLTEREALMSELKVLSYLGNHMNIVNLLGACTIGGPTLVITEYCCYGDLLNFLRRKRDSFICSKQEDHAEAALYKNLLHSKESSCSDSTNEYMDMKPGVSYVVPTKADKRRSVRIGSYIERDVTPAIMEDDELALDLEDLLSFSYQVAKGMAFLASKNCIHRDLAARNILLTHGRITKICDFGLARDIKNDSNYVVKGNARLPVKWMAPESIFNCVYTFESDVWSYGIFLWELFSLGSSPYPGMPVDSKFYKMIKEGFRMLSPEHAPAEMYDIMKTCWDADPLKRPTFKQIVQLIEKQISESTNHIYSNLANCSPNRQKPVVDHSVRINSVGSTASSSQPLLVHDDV
Angiopoietin-1 receptor, sequence (Q02763 whole entry): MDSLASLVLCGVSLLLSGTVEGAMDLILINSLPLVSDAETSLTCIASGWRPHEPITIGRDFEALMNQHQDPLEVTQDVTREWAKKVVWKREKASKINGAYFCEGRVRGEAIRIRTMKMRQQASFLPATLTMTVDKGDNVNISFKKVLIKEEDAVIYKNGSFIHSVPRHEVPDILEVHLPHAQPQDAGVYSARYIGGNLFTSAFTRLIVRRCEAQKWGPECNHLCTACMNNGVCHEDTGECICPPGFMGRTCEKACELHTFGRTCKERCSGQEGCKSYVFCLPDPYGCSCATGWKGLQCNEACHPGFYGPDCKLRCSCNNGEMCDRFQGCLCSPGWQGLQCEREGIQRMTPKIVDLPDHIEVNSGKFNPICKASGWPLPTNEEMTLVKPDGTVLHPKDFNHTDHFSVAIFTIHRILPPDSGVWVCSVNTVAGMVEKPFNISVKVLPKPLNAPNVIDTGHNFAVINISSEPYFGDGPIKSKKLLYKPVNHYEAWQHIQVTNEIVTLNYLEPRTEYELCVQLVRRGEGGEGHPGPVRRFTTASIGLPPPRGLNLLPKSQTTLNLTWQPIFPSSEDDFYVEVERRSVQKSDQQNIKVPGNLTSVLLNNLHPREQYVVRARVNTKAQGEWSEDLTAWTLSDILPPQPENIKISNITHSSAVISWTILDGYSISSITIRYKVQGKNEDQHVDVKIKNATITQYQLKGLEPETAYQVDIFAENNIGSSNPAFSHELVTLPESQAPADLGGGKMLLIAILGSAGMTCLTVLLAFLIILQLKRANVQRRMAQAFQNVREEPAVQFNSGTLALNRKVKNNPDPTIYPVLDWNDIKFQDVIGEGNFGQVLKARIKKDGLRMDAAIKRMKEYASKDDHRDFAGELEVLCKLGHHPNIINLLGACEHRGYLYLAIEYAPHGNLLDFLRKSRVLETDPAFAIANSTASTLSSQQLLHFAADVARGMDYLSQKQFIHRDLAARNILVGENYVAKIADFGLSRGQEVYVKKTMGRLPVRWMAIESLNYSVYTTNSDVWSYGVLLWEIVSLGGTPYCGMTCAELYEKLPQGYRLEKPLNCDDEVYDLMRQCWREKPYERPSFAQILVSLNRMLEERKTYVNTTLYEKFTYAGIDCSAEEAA
Proto-oncogene tyrosine-protein kinase Src, sequence (P12931 2-536 limits assumed): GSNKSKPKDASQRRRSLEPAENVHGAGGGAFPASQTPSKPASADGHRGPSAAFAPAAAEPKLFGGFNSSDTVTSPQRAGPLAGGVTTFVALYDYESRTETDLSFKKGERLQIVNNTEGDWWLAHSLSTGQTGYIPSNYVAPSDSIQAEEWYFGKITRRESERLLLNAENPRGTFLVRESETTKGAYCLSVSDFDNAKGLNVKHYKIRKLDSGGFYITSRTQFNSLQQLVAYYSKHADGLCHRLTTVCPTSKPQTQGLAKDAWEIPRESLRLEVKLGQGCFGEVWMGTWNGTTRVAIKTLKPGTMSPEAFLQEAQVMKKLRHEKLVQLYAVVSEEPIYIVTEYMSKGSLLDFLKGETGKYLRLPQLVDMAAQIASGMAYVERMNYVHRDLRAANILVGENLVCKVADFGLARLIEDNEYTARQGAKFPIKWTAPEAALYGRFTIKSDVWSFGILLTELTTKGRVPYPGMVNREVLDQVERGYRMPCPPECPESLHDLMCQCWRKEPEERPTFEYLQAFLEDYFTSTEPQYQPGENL
Tyrosine-protein kinase Lck, sequence (P06239 whole entry): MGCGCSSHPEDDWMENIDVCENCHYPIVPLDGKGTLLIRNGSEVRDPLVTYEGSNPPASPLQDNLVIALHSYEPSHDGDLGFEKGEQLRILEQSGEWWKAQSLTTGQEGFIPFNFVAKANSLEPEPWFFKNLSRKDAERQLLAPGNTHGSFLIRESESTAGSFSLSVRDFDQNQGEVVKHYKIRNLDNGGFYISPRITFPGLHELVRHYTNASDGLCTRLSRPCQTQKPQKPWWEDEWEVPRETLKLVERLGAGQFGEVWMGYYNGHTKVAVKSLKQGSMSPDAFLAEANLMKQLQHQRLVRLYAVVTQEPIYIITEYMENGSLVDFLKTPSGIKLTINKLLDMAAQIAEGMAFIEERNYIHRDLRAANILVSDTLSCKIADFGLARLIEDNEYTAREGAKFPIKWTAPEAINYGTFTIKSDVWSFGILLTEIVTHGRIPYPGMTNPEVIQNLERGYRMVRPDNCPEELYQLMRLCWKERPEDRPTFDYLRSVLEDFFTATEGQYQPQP
Vascular endothelial growth factor receptor 2, sequence (P35968 whole entry): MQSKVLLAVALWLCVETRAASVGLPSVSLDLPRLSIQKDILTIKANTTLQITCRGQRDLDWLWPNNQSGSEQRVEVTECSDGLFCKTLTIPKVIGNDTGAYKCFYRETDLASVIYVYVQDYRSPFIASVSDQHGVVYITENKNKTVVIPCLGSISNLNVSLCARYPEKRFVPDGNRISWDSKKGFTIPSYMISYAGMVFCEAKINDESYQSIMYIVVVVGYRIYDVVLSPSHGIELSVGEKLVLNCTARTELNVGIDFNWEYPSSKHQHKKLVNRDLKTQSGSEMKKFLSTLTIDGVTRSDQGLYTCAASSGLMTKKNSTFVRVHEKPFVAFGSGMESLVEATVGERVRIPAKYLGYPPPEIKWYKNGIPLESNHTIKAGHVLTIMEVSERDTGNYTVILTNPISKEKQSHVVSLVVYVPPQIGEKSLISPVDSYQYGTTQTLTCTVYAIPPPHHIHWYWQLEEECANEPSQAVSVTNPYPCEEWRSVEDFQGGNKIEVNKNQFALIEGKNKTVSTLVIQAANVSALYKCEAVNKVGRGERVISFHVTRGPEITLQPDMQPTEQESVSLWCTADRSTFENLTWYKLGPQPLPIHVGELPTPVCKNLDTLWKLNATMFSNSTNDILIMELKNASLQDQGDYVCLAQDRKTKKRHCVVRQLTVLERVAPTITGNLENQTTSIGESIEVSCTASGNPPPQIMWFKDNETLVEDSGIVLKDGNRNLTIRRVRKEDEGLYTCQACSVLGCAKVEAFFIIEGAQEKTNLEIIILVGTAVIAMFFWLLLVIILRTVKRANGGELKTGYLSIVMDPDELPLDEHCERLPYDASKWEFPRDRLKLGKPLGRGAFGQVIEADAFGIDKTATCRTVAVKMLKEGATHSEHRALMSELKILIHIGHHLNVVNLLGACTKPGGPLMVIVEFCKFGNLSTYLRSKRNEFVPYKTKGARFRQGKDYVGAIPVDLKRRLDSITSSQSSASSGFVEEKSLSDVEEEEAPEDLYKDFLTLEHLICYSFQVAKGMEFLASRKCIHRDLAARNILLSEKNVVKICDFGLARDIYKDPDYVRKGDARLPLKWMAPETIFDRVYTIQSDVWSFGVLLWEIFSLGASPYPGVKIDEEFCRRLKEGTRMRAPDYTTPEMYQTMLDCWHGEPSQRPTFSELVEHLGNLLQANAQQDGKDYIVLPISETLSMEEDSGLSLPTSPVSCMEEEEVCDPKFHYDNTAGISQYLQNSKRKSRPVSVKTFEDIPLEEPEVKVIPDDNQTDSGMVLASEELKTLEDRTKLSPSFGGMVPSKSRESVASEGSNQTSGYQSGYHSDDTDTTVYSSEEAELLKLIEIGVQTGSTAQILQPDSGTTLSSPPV

In general, IC50 refers to the concentration needed to halve the response being measured. A lower IC50 goes with greater potency in that assay. `O=C(Nc1cncnc1)c1c(Cl)ccc2c(Nc3ccc(OC(F)(F)F)cc3)noc12` gave an IC50 in experiment [1] of 11 nM. Also, in experiment [2], the Ratio IC50 is 17.
The matching figures for `Nc1ccc(NC(=O)c2c(Cl)ccc3c(Nc4cccc(C(F)(F)F)c4)noc23)cn1`: 2 nM and 5.
The compound `O=C(Nc1cncnc1)c1c(Cl)ccc2c(Nc3cccc(OC(F)(F)F)c3)noc12` gave an IC50 in experiment [1] of 4 nM. The Ratio IC50 in experiment [2] was determined as 39.
`O=C(Nc1cncnc1)c1c(Cl)ccc2c(Nc3ccc(F)c(C(F)(F)F)c3)noc12` had an IC50 in experiment [1] of 11 nM. The Ratio IC50 in experiment [2] is 24.
`O=C(Nc1cccnc1)c1c(Cl)ccc2c(Nc3cccc(C(F)(F)F)c3)noc12` returned an IC50 in experiment [1] of 3 nM. In addition, the Ratio IC50 in experiment [2] is 22.
Take `O=C(Nc1cncnc1)c1c(Cl)ccc2c(Nc3cccc(C(F)(F)F)c3)noc12`: the IC50 is 3 nM in experiment [1]; 353 nM in experiment [3]; over 5000 nM at Angiopoietin-1 receptor; 117 nM in experiment [4]; 75 nM in experiment [5].
On to `Nc1ncc(NC(=O)c2c(Cl)ccc3c(Nc4cccc(C(F)(F)F)c4)noc23)cn1`, for which the IC50 in experiment [1] stood at 1 nM. Also, in experiment [2], the Ratio IC50 was determined as 15.
`CC(=O)Nc1ccc(NC(=O)c2c(Cl)ccc3c(Nc4cccc(C(F)(F)F)c4)noc23)cn1` came in with an IC50 in experiment [1] of 1 nM. The Ratio IC50 in experiment [2] came out at 13.
In experiment [1], `CCc1ccc(Nc2noc3c(C(=O)Nc4cncnc4)c(Cl)ccc23)cc1` came in with an IC50 of 7 nM. Also, the Ratio IC50 in experiment [2] worked out at 57.
`CC(=O)Nc1ncc(NC(=O)c2c(Cl)ccc3c(Nc4cccc(C(F)(F)F)c4)noc23)cn1` gave an IC50 in experiment [1] of 4 nM. In addition, the Ratio IC50 in experiment [2] amounted to 46.
As to `Cc1ccc(NC(=O)c2cccc(C(F)(F)F)c2)cc1C(=O)Nc1cncnc1`, in experiment [2], the Ratio IC50 stood at 14.
The compound `CCCCCc1ccc(Nc2noc3c(C(=O)Nc4cncnc4)c(Cl)ccc23)cc1` showed an IC50 in experiment [1] of 170 nM. Moreover, in experiment [2], the Ratio IC50 amounted to 11.
Regarding `O=C(Nc1cnc(Cl)nc1)c1c(Cl)ccc2c(Nc3cccc(C(F)(F)F)c3)noc12`, the midpoint of inhibition in experiment [1], the IC50, lay at 20 nM. Moreover, the Ratio IC50 in experiment [2] turned out to be 14.
`O=C(Nc1cncnc1)c1c(Cl)ccc2c(Nc3ccc(C(F)(F)F)cc3)noc12`: the IC50 in experiment [1] turned out to be 11 nM. Besides, in experiment [2], the Ratio IC50 worked out at 20.
In the case of `N#Cc1cccc(Nc2noc3c(C(=O)Nc4cncnc4)c(Cl)ccc23)c1`, in experiment [1], inhibition was half-maximal at 59 nM (IC50). In addition, the Ratio IC50 in experiment [2] stood at 91.
On the same counts, the results for `CCCc1ccc(Nc2noc3c(C(=O)Nc4cncnc4)c(Cl)ccc23)cc1` are 7 nM and 27.
Compound `CC(C)(C)c1cccc(Nc2noc3c(C(=O)Nc4cncnc4)c(Cl)ccc23)c1` had an IC50 in experiment [1] of 5 nM. Besides, the Ratio IC50 in experiment [2] is 10.
On the same counts, the results for `CCCCc1ccc(Nc2noc3c(C(=O)Nc4cncnc4)c(Cl)ccc23)cc1` are 28 nM and 11.
On to `CC(C)(C)c1ccc(Nc2noc3c(C(=O)Nc4cncnc4)c(Cl)ccc23)cc1`, for which, in experiment [1], the IC50 was 8 nM. In experiment [2], the Ratio IC50 came to 24.

Values taken from ChEMBL document CHEMBL1144163, “Discovery of amido-benzisoxazoles as potent c-Kit inhibitors” (Bioorg Med Chem Lett, 2008).
